pIC50: −log10 of the molar value.
Columns and labels:
Assay type in all cases: biochemical
CDK4 = CDK4 (Homo sapiens, UniProt P11802); experiment: Kinase assay, CDK4 activity range (Table 2)
CDK9/Cyclin T1 = molecular target: T1, CDK9/Cyclin T1 (Homo sapiens, UniProt P50750); experiment: Kinase assay using CDK9/Cyclin T1; settings: read-out: CDK9 (activity range)
T1 construct: made in house; host or cells: HEK293 cells, recombinant adenovirus
Summary of the method: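 Recombinant CDK9/Cyclin T1 produced via adenoviral expression from gateway-cloned cDNAs. Kinase reaction run essentially per a published protocol.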

CDK2/CyclinA = molecular target: T2, CDK2/CyclinA (Homo sapiens, UniProt P24941); experiment: Kinase assay determining CDK2/CyclinA activity; settings: read-out: CDK2 (activity range)
T2 construct: purchased Proqinase
Description: Kinase Assays Determining CDK2/CyclinA and CDK5/p35 Activity:
Kinase assays were performed as described by the manufacturers recommendations (Proqinase for CDK2/CyclinA and Upsate for CDK5/p35).

CDK1 = CDK1 (Homo sapiens, UniProt P06493); experiment: General kinase assay, selectivity panel: CDK1; settings: 10 μM of compound, in comparison to DMSO (0% inhibition)
Sequence of CDK1 (P06493 whole entry, species assumed): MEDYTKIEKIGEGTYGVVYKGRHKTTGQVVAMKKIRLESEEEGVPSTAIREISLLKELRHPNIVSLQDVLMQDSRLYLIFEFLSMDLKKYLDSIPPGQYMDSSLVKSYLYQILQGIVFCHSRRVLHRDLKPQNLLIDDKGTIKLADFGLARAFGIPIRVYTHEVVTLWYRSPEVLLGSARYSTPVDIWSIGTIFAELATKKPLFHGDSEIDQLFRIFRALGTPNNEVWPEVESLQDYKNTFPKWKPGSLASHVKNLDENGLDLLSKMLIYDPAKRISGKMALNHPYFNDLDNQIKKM
Sequence of CDK1 (P14635 whole entry partner, species assumed): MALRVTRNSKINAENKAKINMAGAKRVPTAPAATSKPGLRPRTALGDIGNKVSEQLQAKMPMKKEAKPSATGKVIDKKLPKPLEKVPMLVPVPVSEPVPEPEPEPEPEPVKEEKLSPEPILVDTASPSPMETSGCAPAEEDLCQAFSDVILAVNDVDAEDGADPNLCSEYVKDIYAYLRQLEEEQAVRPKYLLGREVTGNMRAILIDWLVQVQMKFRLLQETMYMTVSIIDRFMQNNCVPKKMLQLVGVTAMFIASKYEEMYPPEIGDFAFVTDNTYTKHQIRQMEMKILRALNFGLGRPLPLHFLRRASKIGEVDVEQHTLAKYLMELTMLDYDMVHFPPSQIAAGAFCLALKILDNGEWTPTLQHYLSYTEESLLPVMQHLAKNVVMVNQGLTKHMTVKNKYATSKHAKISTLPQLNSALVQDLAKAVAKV
Description: (§1) The inhibitory effect of compounds according to the present invention on the activity of protein kinases, depicted in Table 1, can be measured according to the following protocol:
(§2) Pipettinq Sequence: • 1) Add 10 μl 4 fold concentrated Substrate+4 fold concentrated ATP in 3 fold concentrated Reaction Buffer to each well of Assay Plate • 2) Add 10 μl 4 fold concentrated inhibitor in 4% DMSO in H2O to each well except to C− and C+ wells • 3) Add 10 μl 4% DMSO in H2O to C− and C+ wells • 4) Add 10 μl 500 mM EDTA in H2O to − wells • 5) Add 10 μl 50 μCi/ml Adenosine 5′-[γ-^33P]triphosphate in H2O to each well • 6) Add 10 μl 4 fold concentrated kinase in Reaction Buffer to each well • 7) Incubate 1 hr at room temperature • 8) Add 10 μl 50 mM EDTA in H2O to each well except to C− wells • 9) Prepare MAPH plates by adding 200 μl 0.75% H3PO4 to each well • 10) Exhaust 0.75% H3PO4 using Millipore vacuum station • 11) Add 60 μl 0.75% H3PO4 to each well of MAPH Filter Plate • 12) Transfer 30 μl sample per well from Assay Plate to corresponding well of MAPH Filter Plate • 13) Incubate 30 min at room temperature • 14) Wash each well of MAPH Filter Plates 3× with 200 μl 0.75% H3PO4 using Millipore vacuum station. • 15) Add 20 μl Scintillation Liquid to each well of MAPH Filter Plate • 16) Seal MAPH Filter Plate • 17) Store MAPH Filter Plate 30 min in darkness • 18) Quantify radioactivity
(§3) The activity of these protein kinases is depicted as % inhibition in the presence of 10 μM of compound in comparison to DMSO (0% inhibition).

c-Kit = c-Kit (Homo sapiens, UniProt P10721); experiment: General kinase assay, selectivity panel: c-Kit; settings: 10 μM of compound, in comparison to DMSO (0% inhibition)
Sequence of c-Kit (P10721 26-976): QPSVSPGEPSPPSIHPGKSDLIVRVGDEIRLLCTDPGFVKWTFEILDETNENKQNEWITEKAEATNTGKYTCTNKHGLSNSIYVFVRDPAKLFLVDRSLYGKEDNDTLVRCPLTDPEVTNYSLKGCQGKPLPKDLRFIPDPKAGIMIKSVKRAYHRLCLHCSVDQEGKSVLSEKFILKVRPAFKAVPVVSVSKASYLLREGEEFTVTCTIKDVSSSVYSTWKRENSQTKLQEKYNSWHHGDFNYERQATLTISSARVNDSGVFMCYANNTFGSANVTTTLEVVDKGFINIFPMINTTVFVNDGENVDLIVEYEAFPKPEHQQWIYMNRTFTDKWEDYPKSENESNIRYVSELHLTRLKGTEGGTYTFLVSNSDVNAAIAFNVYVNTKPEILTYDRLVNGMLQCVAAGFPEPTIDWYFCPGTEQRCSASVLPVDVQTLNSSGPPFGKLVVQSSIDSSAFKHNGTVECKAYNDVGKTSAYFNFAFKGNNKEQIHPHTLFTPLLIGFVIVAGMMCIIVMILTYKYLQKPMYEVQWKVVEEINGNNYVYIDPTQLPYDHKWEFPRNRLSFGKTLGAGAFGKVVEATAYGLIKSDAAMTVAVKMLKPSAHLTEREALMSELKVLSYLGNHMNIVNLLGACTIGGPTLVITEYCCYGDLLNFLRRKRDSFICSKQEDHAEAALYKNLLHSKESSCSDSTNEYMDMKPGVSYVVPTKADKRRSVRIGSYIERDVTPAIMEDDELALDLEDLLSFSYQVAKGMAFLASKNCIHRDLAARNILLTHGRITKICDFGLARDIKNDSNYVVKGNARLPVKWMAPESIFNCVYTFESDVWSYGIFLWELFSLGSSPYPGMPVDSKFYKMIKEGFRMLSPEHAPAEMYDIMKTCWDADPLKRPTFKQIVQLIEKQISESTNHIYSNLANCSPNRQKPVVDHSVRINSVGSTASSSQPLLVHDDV
Description: as §1, §2, §3

p56 Lck = p56 Lck (Homo sapiens, UniProt P06239); experiment: General kinase assay, selectivity panel: p56 Lck; settings: 10 μM of compound, in comparison to DMSO (0% inhibition)
Sequence of p56 Lck (P06239 whole entry): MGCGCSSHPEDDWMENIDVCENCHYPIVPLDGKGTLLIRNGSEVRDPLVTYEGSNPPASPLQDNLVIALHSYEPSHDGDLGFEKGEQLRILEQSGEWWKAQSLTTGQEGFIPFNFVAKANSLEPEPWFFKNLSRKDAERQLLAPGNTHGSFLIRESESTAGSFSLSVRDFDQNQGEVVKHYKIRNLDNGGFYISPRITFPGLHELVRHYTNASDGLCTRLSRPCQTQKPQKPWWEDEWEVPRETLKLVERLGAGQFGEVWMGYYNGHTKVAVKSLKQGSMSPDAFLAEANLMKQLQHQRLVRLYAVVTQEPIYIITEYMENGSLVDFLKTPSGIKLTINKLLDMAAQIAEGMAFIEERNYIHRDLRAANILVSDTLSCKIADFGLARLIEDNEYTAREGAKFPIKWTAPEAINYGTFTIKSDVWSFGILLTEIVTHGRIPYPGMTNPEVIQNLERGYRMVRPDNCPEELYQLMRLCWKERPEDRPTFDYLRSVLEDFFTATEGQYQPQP
Description: as §1, §2, §3

GSK-3β = GSK-3β (Homo sapiens, UniProt P49841); experiment: General kinase assay, selectivity panel: GSK-3β; settings: 10 μM of compound, in comparison to DMSO (0% inhibition)
Description: as §1, §2, §3

PDGFR = experiment: General kinase assay, selectivity panel: PDGFR; settings: 10 μM of compound, in comparison to DMSO (0% inhibition)
Description: as §1, §2, §3

EGFR = EGFR (Homo sapiens, UniProt P00533); experiment: General kinase assay, selectivity panel: EGFR; settings: 10 μM of compound, in comparison to DMSO (0% inhibition)
Description: as §1, §2, §3

Abl = Abl (Homo sapiens, UniProt P00519); experiment: General kinase assay, selectivity panel: Abl; settings: 10 μM of compound, in comparison to DMSO (0% inhibition)
Sequence of Abl (P00519 whole entry, species assumed): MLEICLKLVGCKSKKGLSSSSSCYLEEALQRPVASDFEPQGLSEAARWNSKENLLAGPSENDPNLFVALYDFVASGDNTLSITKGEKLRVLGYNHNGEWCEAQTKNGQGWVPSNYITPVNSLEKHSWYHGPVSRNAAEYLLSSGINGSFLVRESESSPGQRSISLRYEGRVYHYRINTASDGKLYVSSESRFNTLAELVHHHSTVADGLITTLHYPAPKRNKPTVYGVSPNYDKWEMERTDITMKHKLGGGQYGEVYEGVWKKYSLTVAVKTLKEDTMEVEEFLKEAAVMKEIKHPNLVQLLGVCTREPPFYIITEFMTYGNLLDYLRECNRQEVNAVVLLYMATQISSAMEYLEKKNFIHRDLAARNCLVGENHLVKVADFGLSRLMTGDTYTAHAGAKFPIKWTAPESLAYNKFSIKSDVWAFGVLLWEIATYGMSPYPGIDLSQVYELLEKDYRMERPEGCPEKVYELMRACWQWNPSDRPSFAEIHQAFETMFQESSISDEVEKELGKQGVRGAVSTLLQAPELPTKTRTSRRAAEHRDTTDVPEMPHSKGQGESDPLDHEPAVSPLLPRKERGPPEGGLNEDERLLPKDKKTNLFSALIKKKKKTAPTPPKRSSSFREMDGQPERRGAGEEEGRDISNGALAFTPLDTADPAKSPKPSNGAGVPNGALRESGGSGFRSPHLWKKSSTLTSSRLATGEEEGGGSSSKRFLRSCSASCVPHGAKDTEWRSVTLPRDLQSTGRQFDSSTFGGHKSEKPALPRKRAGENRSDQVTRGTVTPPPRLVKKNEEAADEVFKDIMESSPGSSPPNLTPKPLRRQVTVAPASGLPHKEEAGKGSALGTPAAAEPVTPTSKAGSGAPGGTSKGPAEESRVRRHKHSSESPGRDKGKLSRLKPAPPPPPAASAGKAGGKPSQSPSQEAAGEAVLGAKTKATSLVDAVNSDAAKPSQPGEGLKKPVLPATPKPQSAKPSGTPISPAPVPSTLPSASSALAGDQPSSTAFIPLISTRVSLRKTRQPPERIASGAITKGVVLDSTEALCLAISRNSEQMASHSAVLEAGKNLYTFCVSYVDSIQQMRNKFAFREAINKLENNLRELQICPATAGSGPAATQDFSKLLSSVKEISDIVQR
Description: as §1, §2, §3

T1 sequence (P50750 whole entry): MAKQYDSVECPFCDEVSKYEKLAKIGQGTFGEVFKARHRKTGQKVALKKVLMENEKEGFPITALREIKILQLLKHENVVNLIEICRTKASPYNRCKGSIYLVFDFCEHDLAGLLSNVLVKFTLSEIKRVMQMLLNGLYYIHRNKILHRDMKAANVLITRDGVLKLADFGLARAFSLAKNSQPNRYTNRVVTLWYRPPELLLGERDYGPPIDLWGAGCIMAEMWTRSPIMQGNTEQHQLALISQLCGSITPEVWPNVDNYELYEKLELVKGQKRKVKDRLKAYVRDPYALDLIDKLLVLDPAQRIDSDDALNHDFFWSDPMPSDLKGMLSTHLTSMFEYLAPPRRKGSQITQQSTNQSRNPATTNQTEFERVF
T1 sequence (O60563 whole entry partner): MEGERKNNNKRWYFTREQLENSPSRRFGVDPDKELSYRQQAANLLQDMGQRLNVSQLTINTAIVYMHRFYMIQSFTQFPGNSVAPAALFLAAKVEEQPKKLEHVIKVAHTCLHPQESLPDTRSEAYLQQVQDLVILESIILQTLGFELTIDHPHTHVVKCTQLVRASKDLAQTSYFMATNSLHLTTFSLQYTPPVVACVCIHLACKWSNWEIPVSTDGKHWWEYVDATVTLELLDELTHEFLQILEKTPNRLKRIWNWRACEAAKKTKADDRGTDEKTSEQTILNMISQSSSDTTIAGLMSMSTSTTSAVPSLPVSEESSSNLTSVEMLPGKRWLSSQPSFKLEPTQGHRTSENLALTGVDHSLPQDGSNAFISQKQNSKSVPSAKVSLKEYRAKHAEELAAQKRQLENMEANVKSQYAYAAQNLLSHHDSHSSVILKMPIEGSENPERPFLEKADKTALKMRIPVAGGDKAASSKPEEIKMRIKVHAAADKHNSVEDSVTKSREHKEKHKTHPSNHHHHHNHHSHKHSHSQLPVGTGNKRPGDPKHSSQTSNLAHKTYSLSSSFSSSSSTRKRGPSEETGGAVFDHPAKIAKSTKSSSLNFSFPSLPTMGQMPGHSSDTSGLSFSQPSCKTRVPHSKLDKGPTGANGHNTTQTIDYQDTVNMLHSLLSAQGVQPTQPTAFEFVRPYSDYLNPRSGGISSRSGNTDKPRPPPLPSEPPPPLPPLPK
Sequence of CDK4 (P11802 whole entry, species assumed): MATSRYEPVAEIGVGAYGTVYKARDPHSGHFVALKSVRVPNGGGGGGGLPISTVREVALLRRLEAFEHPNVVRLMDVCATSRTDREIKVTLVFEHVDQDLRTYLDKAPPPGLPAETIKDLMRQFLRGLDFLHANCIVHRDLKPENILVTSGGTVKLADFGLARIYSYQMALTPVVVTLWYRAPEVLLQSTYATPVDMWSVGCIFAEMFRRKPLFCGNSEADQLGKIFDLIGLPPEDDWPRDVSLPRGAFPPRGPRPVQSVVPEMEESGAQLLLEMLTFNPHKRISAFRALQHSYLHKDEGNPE
Sequence of CDK4 (P24385 whole entry partner, species assumed): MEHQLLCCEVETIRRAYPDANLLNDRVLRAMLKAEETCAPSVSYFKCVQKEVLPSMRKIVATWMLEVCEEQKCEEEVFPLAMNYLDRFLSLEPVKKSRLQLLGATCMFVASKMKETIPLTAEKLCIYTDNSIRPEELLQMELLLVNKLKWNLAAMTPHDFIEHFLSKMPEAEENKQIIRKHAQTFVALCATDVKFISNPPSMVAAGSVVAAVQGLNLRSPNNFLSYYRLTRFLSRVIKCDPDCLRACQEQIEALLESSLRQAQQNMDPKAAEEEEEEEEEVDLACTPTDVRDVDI

Row | Structure (SMILES) | pIC50 (CDK4) | pIC50 (CDK9/Cyclin T1) | pIC50 (CDK2/CyclinA) | CDK1 (% inhibition) (CDK1) | c-Kit (% inhibition) (c-Kit) | p56 Lck (% inhibition) (p56 Lck) | GSK-3β (% inhibition) (GSK-3β) | PDGFR (% inhibition) (PDGFR) | EGFR (% inhibition) (EGFR) | Abl (% inhibition) (Abl)
1 | Cc1ccc(Nc2cc(-c3cccc(O)c3)ncn2)cc1NS(C)(=O)=O [(105)] | 3.60 to 5.00 | 6.00 to 9.00 | 6.00 to 9.00 | – | – | – | – | – | – | –
2 | Cc1ccc(Nc2cc(-c3ccccc3)ncn2)cc1NS(C)(=O)=O [(106)] | 3.60 to 5.00 | 6.00 to 9.00 | 6.00 to 9.00 | – | – | – | – | – | – | –
3 | Cc1ccc(Nc2cc(-c3cccc(C(F)(F)F)c3)ncn2)cc1NS(C)(=O)=O [(107)] | 3.60 to 5.00 | 3.60 to 5.00 | 3.60 to 5.00 | – | – | – | – | – | – | –
4 | COc1ccccc1-c1cc(Nc2cccc(NC(=O)[C@@H]3CCCCN3)c2)ncn1 [(128)] | 5.00 to 6.00 | 6.00 to 9.00 | 6.00 to 9.00 | – | – | – | – | – | – | –
5 | CC[C@H](C)[C@H](N)C(=O)Nc1ccc(Nc2cc(-c3ccccc3OC)ncn2)cc1 [(140)] | 5.00 to 6.00 | 6.00 to 9.00 | 5.00 to 6.00 | – | – | – | – | – | – | –
6 | COc1ccccc1-c1cc(Nc2cccc(S(N)(=O)=O)c2)ncn1 [(150)] | 3.60 to 5.00 | 6.00 to 9.00 | 6.00 to 9.00 | – | – | – | – | – | – | –
7 | COc1cccc(-c2cc(Nc3ccc(NC(=O)[C@@H]4CCCCN4)cc3)ncn2)c1OC [(186)] | 5.00 to 6.00 | 5.00 to 6.00 | 3.60 to 5.00 | – | – | – | – | – | – | –
8 | CC(C)Oc1ccccc1-c1cc(Nc2ccc(NC(=O)[C@@H]3CCCCN3)cc2)ncn1 [(188)] | 6.00 to 9.00 | 6.00 to 9.00 | 5.00 to 6.00 | – | – | – | – | – | – | –
9 | CSc1ccccc1-c1cc(Nc2ccc(NC(=O)[C@@H]3CCCCN3)cc2)ncn1 [(189)] | 6.00 to 9.00 | 6.00 to 9.00 | 5.00 to 6.00 | – | – | – | – | – | – | –
10 | NC1CCCCC1NC(=O)c1ccc(Nc2cc(-c3ccccc3OCc3ccccc3)ncn2)cc1 (stereo not drawn) [(198)] | 6.00 to 9.00 | 6.00 to 9.00 | 6.00 to 9.00 | – | – | – | – | – | – | –
11 | COc1ccccc1-c1cc(Nc2ccc(NC(=O)c3ccc(N)cc3)cc2)ncn1 [Compound 8] | – | – | – | a (inhibition greater than 80%: a) | b (inhibition between 80 and 50%: b) | b (inhibition between 80 and 50%: b) | – | – | – | –
12 | Cc1ccc(Nc2cc(-c3cccc(N)c3)ncn2)cc1NS(C)(=O)=O [Compound 12] | – | – | – | a (inhibition greater than 80%: a) | b (inhibition between 80 and 50%: b) | b (inhibition between 80 and 50%: b) | a (inhibition greater than 80%: a) | c (inhibition between 50 and 30%: c) | a (inhibition greater than 80%: a) | –
13 | CC(C)Oc1ccccc1-c1cc(Nc2ccc(NC(=O)c3ccc(N)cc3)cc2)ncn1 [Compound 58] | – | – | – | a (inhibition greater than 80%: a) | – | a (inhibition greater than 80%: a) | a (inhibition greater than 80%: a) | – | b (inhibition between 80 and 50%: b) | –
14 | COc1ccccc1-c1cc(Nc2ccc(NC(=O)CC3CCCCN3)cc2)ncn1 (stereo not drawn) [Compound 59] | – | – | – | a (inhibition greater than 80%: a) | b (inhibition between 80 and 50%: b) | b (inhibition between 80 and 50%: b) | – | b (inhibition between 80 and 50%: b) | a (inhibition greater than 80%: a) | b (inhibition between 80 and 50%: b)
15 | COc1ccccc1-c1cc(Nc2ccc(NC(=O)[C@H]3Cc4ccccc4CN3)cc2)ncn1 [Compound 65] | – | – | – | b (inhibition between 80 and 50%: b) | b (inhibition between 80 and 50%: b) | b (inhibition between 80 and 50%: b) | – | b (inhibition between 80 and 50%: b) | a (inhibition greater than 80%: a) | b (inhibition between 80 and 50%: b)
16 | COc1ccccc1-c1cc(Nc2ccc(NC(=O)Cc3ccccc3)cc2)ncn1 [Compound 71] | – | – | – | a (inhibition greater than 80%: a) | b (inhibition between 80 and 50%: b) | b (inhibition between 80 and 50%: b) | c (inhibition between 50 and 30%: c) | b (inhibition between 80 and 50%: b) | c (inhibition between 50 and 30%: c) | –
17 | CCCS(=O)(=O)Nc1cc(Nc2cc(-c3cccc(N)c3)ncn2)ccc1C [Compound 116] | – | – | – | a (inhibition greater than 80%: a) | – | b (inhibition between 80 and 50%: b) | a (inhibition greater than 80%: a) | c (inhibition between 50 and 30%: c) | a (inhibition greater than 80%: a) | –

The next lines start with the values.

Row | pIC50 (CDK4) | pIC50 (CDK9/Cyclin T1) | pIC50 (CDK2/CyclinA) | CDK1 (% inhibition) (CDK1) | c-Kit (% inhibition) (c-Kit) | p56 Lck (% inhibition) (p56 Lck) | GSK-3β (% inhibition) (GSK-3β) | PDGFR (% inhibition) (PDGFR) | EGFR (% inhibition) (EGFR) | Abl (% inhibition) (Abl) | Structure (SMILES)
18 | 6.00 to 9.00 | 6.00 to 9.00 | 5.00 to 6.00 | – | – | – | – | – | – | – | CNC(C)(C)C(=O)Nc1ccc(Nc2cc(-c3ccccc3OC)ncn2)cc1 [(118)]
19 | 5.00 to 6.00 | 6.00 to 9.00 | 6.00 to 9.00 | – | – | – | – | – | – | – | COc1ccccc1-c1cc(Nc2cccc(N)c2)ncn1 [(124)]
20 | 5.00 to 6.00 | 6.00 to 9.00 | 5.00 to 6.00 | – | – | – | – | – | – | – | COc1ccccc1-c1cc(Nc2ccc(NC(=O)[C@@H](N)C(C)C)cc2)ncn1 [(143)]
21 | 5.00 to 6.00 | 6.00 to 9.00 | 5.00 to 6.00 | – | – | – | – | – | – | – | COc1ncccc1-c1cc(Nc2ccc(NC(=O)[C@@H]3CCCCN3)cc2)ncn1 [(171)]
22 | 6.00 to 9.00 | 6.00 to 9.00 | 5.00 to 6.00 | – | – | – | – | – | – | – | COc1ccc(-c2cc(Nc3ccc(NC(=O)[C@@H]4CCCCN4)cc3)ncn2)c(OC)c1 [(187)]
23 | – | – | – | a (inhibition greater than 80%: a) | b (inhibition between 80 and 50%: b) | b (inhibition between 80 and 50%: b) | b (inhibition between 80 and 50%: b) | c (inhibition between 50 and 30%: c) | b (inhibition between 80 and 50%: b) | – | COc1ccccc1-c1cc(Nc2ccc(NC(C)=O)cc2)ncn1 [Compound 10]
24 | – | – | – | a (inhibition greater than 80%: a) | b (inhibition between 80 and 50%: b) | b (inhibition between 80 and 50%: b) | c (inhibition between 50 and 30%: c) | c (inhibition between 50 and 30%: c) | a (inhibition greater than 80%: a) | – | COc1ccccc1-c1cc(Nc2ccc(N)cc2)ncn1 [Compound 22]
25 | – | – | – | b (inhibition between 80 and 50%: b) | b (inhibition between 80 and 50%: b) | b (inhibition between 80 and 50%: b) | c (inhibition between 50 and 30%: c) | b (inhibition between 80 and 50%: b) | c (inhibition between 50 and 30%: c) | – | COc1ccccc1-c1cc(Nc2ccc(NC(=O)NC3CCCCC3)cc2)ncn1 [Compound 38]
26 | – | – | – | a (inhibition greater than 80%: a) | – | b (inhibition between 80 and 50%: b) | b (inhibition between 80 and 50%: b) | b (inhibition between 80 and 50%: b) | a (inhibition greater than 80%: a) | c (inhibition between 50 and 30%: c) | COc1ccccc1-c1cc(Nc2ccc(C(=O)NC3CCCNC3)cc2)ncn1 (stereo not drawn) [Compound 86]
27 | – | – | – | b (inhibition between 80 and 50%: b) | – | b (inhibition between 80 and 50%: b) | c (inhibition between 50 and 30%: c) | b (inhibition between 80 and 50%: b) | a (inhibition greater than 80%: a) | b (inhibition between 80 and 50%: b) | COc1ccccc1-c1cc(Nc2ccc(NC(=O)[C@H]3CCCN3)cc2)ncn1 [Compound 91]
